Laboratory results reported in patent US20110313156A1 (BOEHRINGER INGELHEIM INTERNATIONAL GMBH, priority 2008, published 2011).

Biological target: T1, ΔPH-PDK1 (aa 51-359; Q66A mutation) (Homo sapiens, UniProt O15530, Q66A)
T1 construct: a shortened PDK1 enzyme (aa 51-359; Q66A mutation) is used; His6 (N, cleaved yes)
T1 sequence (O15530 51-359 Q66A): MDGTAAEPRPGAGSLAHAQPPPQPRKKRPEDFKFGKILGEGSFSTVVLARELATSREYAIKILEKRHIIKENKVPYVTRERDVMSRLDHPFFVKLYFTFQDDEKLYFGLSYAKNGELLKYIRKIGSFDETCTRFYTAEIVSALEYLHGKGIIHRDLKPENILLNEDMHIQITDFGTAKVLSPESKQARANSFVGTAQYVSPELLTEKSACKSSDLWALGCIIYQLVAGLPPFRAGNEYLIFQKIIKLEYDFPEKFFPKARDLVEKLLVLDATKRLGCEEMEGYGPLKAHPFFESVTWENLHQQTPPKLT
Test: PDK1 kinase assay II (shortened enzyme)
Assay type: biochemical
Conditions: compound at 10 μM, two asterisks: incubation for 5 min, read-out: % CTL (residual activity of the enzyme relative to DMSO control)
Experimental: Another assay was developed in which a shortened PDK1 enzyme (aa 51-359; Q66A mutation) is used that carries in the N-terminal position a His6 tag that is cleaved during purification. (ΔPH-PDK1).
The following components are combined in a well of a 96-well round-based dish (Messrs. Greiner bio-one, No. 650101): • 15 μL of compound to be tested in varying concentrations (e.g. Starting at 10 μM, and diluted in steps of 1:5) in 3.33% DMSO (final concentration 1% DMSO)/assay buffer (50 mM Tris pH 7.5, 0.05% β-mercaptoethanol, 10 mM Mg-acetate) • 15 μL (ΔPH-PDK1; 12 ng/well) and PDKtide ([…]-QEMFRDFDYIADWC) synthesised by Pepceuticals Limited, Nottingham, United Kingdom; 25 μM final concentration); (ΔPH-PDK1 and PDKtide are together diluted accordingly in assay buffer; PDKtide is present in this mixture as an 83.3 μM solution. These 30 […] are incubated for 24 h at RT before ATP solution is added. • 20 μL ATP solution (25 μM ATP with 1.0 μCi/well gamma-P33-ATP)
The reaction is started by adding the ATP solution and the mixture is incubated for 120 min at ambient temperature; at the start of the reaction the dishes are shaken gently. The reaction is stopped by the addition of 50 μL/well of 500 mM phosphoric acid (H3PO4) and incubated for about 20 min at ambient temperature. The precipitate is transferred by harvesting onto filter plates (96-well microtitre filter plate: UniFilter GF/C; Messrs Perkin Elmer; No. 6005174), then washed 6 times with 50 mM H3PO4 and dried at 60° C. Then the plate is stuck down with sealing tape, 25 μL/well of scintillation solution (Microscint 0; Messrs. Perkin Elmer; No. 6013611) are added and the amount of P33 precipitated is measured using the Wallac Betacounter. The measured data are evaluated using Graphpad Prism software.
The % CTL values indicate the residual activity of the enzyme after the addition of the inhibitory compound in the solvent DMSO in relation to the enzyme activity in the solvent DMSO without the addition of a compound (control). The majority of the values were determined using the PDK1 kinase assay III described hereinbefore. The values marked with an asterisk (* or**) were determined using the PDK1 kinase assay II described hereinbefore (one asterisk→incubation for 24 h; two asterisks→incubation for 5 min)

remaining activity at 10 µM: 33%
SMILES: CN(C)Cc1ccc(Nc2ncc3cc(C#CCNC(=O)c4cn(C)c(=O)n(Cc5ccc(F)c(F)c5)c4=O)ccc3n2)cc1 [III-21, 3-(3,4-difluorobenzyl)-N-{3-[2-({4-[(dimethylamino)methyl]phenyl}amino)-quinazolin-6-yl]prop-2-yn-1-yl}-1-methyl-2,4-dioxo-1,2,3,4-tetrahydropyrimidine-5-carboxamide]
